The values that follow come from US20240174636A1, “NOVEL INDOLEAMINE 2,3-DIOXYGENASE INHIBITORS, PROCESSES FOR THE PREPARATION THEREOF AND PHARMACEUTICAL COMPOSITIONS COMPRISING THE SAME” (YUHAN CORPORATION, priority 2021, published 2024).

A short description of series [1]: Pharmacokinetics through oral administration in normal rats. Format: in vivo. The settings on record: 10 mg/5 mL/kg; for Maximum plasma concentration: suspension in 0.5% methyl cellulose containing 0.2% Tween 80. As for the experimental part:
The pharmacokinetics of the compounds of Examples 2, 5 and 25 and BMS-986205 (control) were measured in rats, respectively. The compounds of Examples 2, 5 and 25 and BMS-986205 (control) were each suspended in 0.5% methyl cellulose containing 0.2% Tween 80 and then orally administered to rats at a dose of 10 mg/5 mL/kg. Blood samples were collected from the rat in predetermined times. The concentration of the compound in each sample was analyzed to obtain the blood concentration profiles (FIG. 1).

The target in series [2] is T1, IDO1 (Homo sapiens, UniProt P14902). Description: IDO1 cellular activity using Hela cells (IFN-gamma induced IDO expression, kynurenine absorbance at 480 nm). Format: cell-based. The settings on record: IDO induced with interferon gamma 50 ng/ml, 24 h compound incubation, read-out: Inhibitory Activity (IC50). Here is the method: Hela cells were seeded at a density of 20000 cells/well in 100 μl of a culture medium (EMEM supplemented with 10% FBS, penicillin 100 U/ml, and streptomycin 100 μg/ml) in a tissue culture-treated 96 well plate. The cells were cultured in a 5% carbon dioxide incubator for 24 hours, treated with recombinant human interferon gamma at the concentration of 50 ng/ml, and then cultured for 48 hours in a 5% carbon dioxide incubator to induce IDO expression.
T1 sequence (P14902 whole entry): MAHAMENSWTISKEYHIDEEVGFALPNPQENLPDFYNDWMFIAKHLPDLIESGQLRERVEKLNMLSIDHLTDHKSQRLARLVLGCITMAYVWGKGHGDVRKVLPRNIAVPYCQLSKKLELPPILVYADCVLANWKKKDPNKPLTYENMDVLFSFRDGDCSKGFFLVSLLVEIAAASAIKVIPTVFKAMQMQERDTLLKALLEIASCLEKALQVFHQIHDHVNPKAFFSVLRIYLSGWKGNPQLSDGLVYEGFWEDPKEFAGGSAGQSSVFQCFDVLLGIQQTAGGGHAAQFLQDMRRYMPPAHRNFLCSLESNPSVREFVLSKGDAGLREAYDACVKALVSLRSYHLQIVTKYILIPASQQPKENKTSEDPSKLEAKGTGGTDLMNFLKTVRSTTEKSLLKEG
The activities were measured using IDO1 cellular activity-measuring substrate (IDO1 cellular activity quickDetect supplements catalog: #62000-2, BPS Bioscience). Specifically, an assay medium was prepared by diluting IDO1 assay medium substrate 1 and IDO1 assay medium supplement 2 in a culture medium at a ratio of 1:100, respectively. The test compounds were diluted to the predetermined concentrations in the fresh assay medium. After removing the culture medium using a multi-pipet, 200 μl of each assay medium containing the test material was added into the respective well, followed by incubating in a 5% carbon dioxide incubator for 24 hours. The next day, 140 μl of culture medium from each well was transferred to a new 96-well plate. 10 μl of 6.1N trichloroacetic acid was added into each well, which was then cultured in a 50° C. incubator for 30 minutes. The plate was centrifuged at 2500 rpm for 10 minutes to settle any sediment. A detection reagent solution was prepared by diluting the detection reagent (component D kit, catalog: #62000-2, BPS Bioscience) 50-fold in acetic acid. 100 μl of the supernatant taken from the centrifuged plate was transferred to a new transparent 96-well plate and then 100 μl of the detection reagent solution was added thereto. After reacting at room temperature for 10 minutes, absorbance was measured at 480 nm wavelength. For analysis of the results, the absorbance (At) of the well containing Hela cells in which IDO protein expression was induced without treatment of an inhibitor was 100%; and the absorbance (Ab) of the well containing Hela cells in which IDO protein expression was not induced was 0. The % absorbance was calculated according to the following equation: % Absorbance=(A−Ab)/(At−Ab), A=absorbance of the well treated with the test compound.
The results obtained by calculating the 50% inhibitory concentration (C50) of each compound, from the absorbance values obtained as described above, are shown in Table 1 below.

For series [3], the target named is T1, IDO1. Description: IDO1 cellular activity using HEK293 cells transfected with IDO1 expression vector. The class given is cell-based. Set-up: host or cells: HEK293 cells, transient transfection with Lipofectamine 2000. Conditions: 24 h compound incubation, read-out: Inhibitory Activity (IC50). In outline:
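HEK293 cells transiently transfected with IDO1 expression vector, expressed 24 h, then given compound in substrate-containing assay medium for 24 h. Medium TCA-treated 30 min at 50° C; product detected by absorbance at 480 nm, scaled between untreated IDO1-expressing cells (100%) and non-expressing cells (0).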

As for `C[C@H](C[C@H]1CC[C@@H](c2ccnc3ccc(F)cc32)CC1)Nc1ncnc2cc(Br)ccc12` [Example 2, 7-bromo-N-((R)-1-((cis)-4-(6-fluoroquinolin-4-yl)cyclohexyl)propan-2-yl)quinazolin-4-amine], in series [1], the “Area under the curve” value was found to be 108441.1 ng·h/mL, the “Time to maximum plasma concentration” value turned out to be 1 h and the Maximum plasma concentration came out at 18050.3 ng/mL. Further, the IC50 at IDO1 [2] amounted to 8.8 nM.

As to `C[C@@H](C(=O)Nc1ccc(Cl)cc1)C1CCC(c2ccnc3ccc(F)cc23)CC1` (stereo partly drawn) [BMS-986205, reference compound], in series [1], the “Area under the curve” value was 3976.7 ng·h/mL, the “Time to maximum plasma concentration” value was found to be 1 h and the Maximum plasma concentration is on record as 656.8 ng/mL.

Consider `C[C@H](C[C@H]1CC[C@H](c2ccnc3ccc(F)cc32)CC1)Nc1c(F)c(=O)oc2cc(Cl)ccc12` [Example 10, 7-chloro-3-fluoro-4-(((R)-1-((trans)-4-(6-fluoroquinolin-4-yl)cyclohexyl)propan-2-yl)amino)-2H-chromen-2-one], for which the half-inhibitory concentration (IC50) at IDO1 [3] stood at 9.5 nM; at IDO1 [2], 10.2 nM.

Consider `COc1ccc2nc(N[C@H](C)C[C@H]3CC[C@@H](c4ccnc5ccc(F)cc54)CC3)sc2n1` [Example 22, N-((R)-1-((cis)-4-(6-fluoroquinolin-4-yl)cyclohexyl)propan-2-yl)-5-methoxythiazolo[5,4-b]pyridin-2-amine], for which the figures for the IC50 on IDO1 [3] and at IDO1 [2] were 10.9 nM and 16 nM, respectively.

For the compound `C[C@H](C[C@H]1CC[C@@H](c2ccnc3ccc(F)cc32)CC1)Nc1nc2ccc(Cl)cc2s1` [Example 13, 6-chloro-N-((R)-1-((cis)-4-(6-fluoroquinolin-4-yl)cyclohexyl)propan-2-yl)benzo[d]thiazol-2-amine], the values for the IC50 on IDO1 [3] and at IDO1 [2] were 32.6 nM and 30 nM, respectively.

As to `C[C@H](C[C@H]1CC[C@@H](c2ccnc3ccc(F)cc32)CC1)Nc1nc2ccc(F)cc2o1` [Example 29, 6-fluoro-N-((R)-1-((cis)-4-(6-fluoroquinolin-4-yl)cyclohexyl)propan-2-yl)benzo[d]oxazol-2-amine], the values for the IC50 on IDO1 [3] and on IDO1 [2] were 9.9 nM and 10 nM, respectively.

As to `COc1ccc2nc(N[C@H](C)C[C@H]3CC[C@@H](c4ccnc5ccc(F)cc54)CC3)oc2c1` [Example 26, N-((R)-1-((cis)-4-(6-fluoroquinolin-4-yl)cyclohexyl)propan-2-yl)-6-methoxybenzo[d]oxazol-2-amine], the IC50 at IDO1 [3] came out at 6.5 nM; at IDO1 [2], 15 nM.

Regarding `C[C@H](C[C@H]1CC[C@H](c2ccnc3ccc(F)cc32)CC1)Nc1cc(=O)oc2cc(Br)ccc12` [Example 5, 7-bromo-4-(((R)-1-((trans)-4-(6-fluoroquinolin-4-yl)cyclohexyl)propan-2-yl)amino)-2H-chromen-2-one], in series [1], the “Area under the curve” value is 73460.2 ng·h/mL, the “Time to maximum plasma concentration” value is 4 h and the Maximum plasma concentration is on record as 4476.3 ng/mL. The IC50 on IDO1 [2] stood at 16 nM.

For the compound `CC[C@H](C[C@H]1CC[C@@H](c2ccnc3ccc(F)cc32)CC1)Nc1nc2ccc(Cl)cc2o1` [Example 27, 6-chloro-N-((R)-1-((cis)-4-(6-fluoroquinolin-4-yl)cyclohexyl)butan-2-yl)benzo[d]oxazol-2-amine], the IC50 on IDO1 [3] amounted to 7.4 nM; on IDO1 [2], 23 nM.

Take `C[C@H](C[C@H]1CC[C@@H](c2ccnc3ccc(F)cc32)CC1)Nc1nc2ccc(Cl)cc2o1` [Example 25, 6-chloro-N-((R)-1-((cis)-4-(6-fluoroquinolin-4-yl)cyclohexyl)propan-2-yl)benzo[d]oxazol-2-amine]: the concentration for half-maximal inhibition (IC50) at IDO1 [3] came to 5.2 nM. In series [1], the “Area under the curve” value was 16018 ng·h/mL, the “Time to maximum plasma concentration” value is 2 h and the Maximum plasma concentration is 2170.3 ng/mL. Further, at IDO1 [2], the IC50 was found to be 4.4 nM.

For the compound `C[C@H](C[C@H]1CC[C@@H](c2ccnc3ccc(F)cc32)CC1)Nc1nc2cccnc2o1` [Example 30, N-((R)-1-((cis)-4-(6-fluoroquinolin-4-yl)cyclohexyl)propan-2-yl)oxazolo[5,4-b]pyridin-2-amine], the IC50 amounted to 19.1 nM at IDO1 [3] and 23.5 nM at IDO1 [2].

What is called IC50 is the concentration needed to halve the response being measured.
